Results as given in PMC6214915, “Design of a novel cell-permeable chimeric peptide to promote wound healing” (Scientific Reports, 2018).
Converted amounts (≈) assume the structure as drawn. Peptide text beside a SMILES is read from it.

Experiments:
[1] = Circular dichroism spectroscopy (secondary structure); type: physicochemical; conditions: for Percentage of the α-helix content: phosphate buffer / Percentage of the α-helix content: 50% TFE: CD, 20 µM peptide, calculated from ellipticity at 222 nm; for Percentage of the α-helix content: phosphate buffer: 10 mM phosphate buffer pH 7.0, 20 °C; for Percentage of the α-helix content: 50% TFE: 10 mM phosphate buffer pH 7.0 with 50% TFE, 20 °C; for R-value: ratio between molar ellipticity values at 222 and 208 nm, in the presence of 50% TFE, R = 1 perfect α-helix
Protocol: Figure 1 Structural characteristics of investigated peptides. CD spectra were acquired at a peptide concentration of 20 µM in 10 mM phosphate buffer, pH 7.0 (A) and in the additional presence of 50% TFE (B). The percentage of the α-helix content was calculated from the ellipticity value at 222 nm using the following formula: (% α-helix = ((([Θ222]−3000)⁄(−36000−3000)) × 100)[47] (C). R-values represent the ratio between the molar ellipticity values at 222 and 208 nm[20] and R = 1 defined as hallmark for a perfectly built α-helix[48]. Helical wheel projections of Tylotoin-sC18* and sC18*-Tylotoin predicted by HeliQuest (D). TEXT PRINTED IN THE PICTURE: (C) Tylotoin-sC18: Percentage of the α-helix content: phosphate buffer: 12.1; Percentage of the α-helix content: 50% TFE: 46.3; R-value: 0.85 | (C) sC18-Tylotoin: Percentage of the α-helix content: phosphate buffer: 13.1; Percentage of the α-helix content: 50% TFE: 43.5; R-value: 0.87 | (C) Tylotoin-sC18*: Percentage of the α-helix content: phosphate buffer: 10.7; Percentage of the α-helix content: 50% TFE: 46.3; R-value: 0.77 | (C) sC18*-Tylotoin: Percentage of the α-helix content: phosphate buffer: 6.9; Percentage of the α-helix content: 50% TFE: 40.5; R-value: 0.74 | (C) Tylotoin: Percentage of the α-helix content: phosphate buffer: 15.6; Percentage of the α-helix content: 50% TFE: 25.0; R-value: 0.51
CD spectra were recorded from 180 nm to 270 nm in 0.5 nm intervals at 20 °C using a JASCO J-715 spectropolarimeter in an N2 atmosphere. The CD spectra were measured using a 1 mm quartz cuvette and the instrument parameters were set as follows: sensitivity, 100 mdeg; scan mode, continuous; scan speed, 50 nm/min; response time, 2 sec and bandwidth, 1.0 nm. Peptides were dissolved in 10 mM potassium phosphate buffer (pH 7.0) containing either 0 or 50% (v/v) trifluoroethanol (TFE) to a final peptide concentration of 20 µM.

[2] = test system: human keratinocytes HaCaT; test: MTT cell viability assay on HaCaT keratinocytes; type: cell-based; conditions: 24 h, 37 °C; for Cytotoxic effect on keratinocytes viability: 10 to 100 µM, serum-free medium, triplicate, n = 3; for Effect on HaCaT cells at higher concentrations: >50 µM
Protocol: Figure 2 Cytotoxic profile of peptides against human keratinocytes HaCaT. Cells were incubated with indicated concentrations of peptides at 37 °C for 24 h. Cell viability of HaCaT cells was determined by MTT assay relative to untreated cells (set to 100%). As positive control, cells were treated with 70% EtOH for 10 min. Experiments were conducted in triplicate with n = 3. Error bars represent standard deviation. (**p < 0.01; ***p < 0.001).
The toxic effect of the investigated peptides on HaCaT cells was evaluated using the [3(4,5-dimethylthiazol-2yl)2,5-diphenyltetrazolium bromide] (MTT) colorimetric method. MTT is a tetrazolium salt which is reduced to a purple colored formazan product by mitochondrial reductases, present only in metabolically active cells. Keratinocytes were seeded onto a 96-well microtiter plate at a density of 8 × 10^4 cells per well in DMEMg supplemented with 2 mM L-Gln and 2% FBS. After reaching 70–80% confluency, the medium was removed and cells were incubated at 37 °C for 24 h with peptides at different concentrations ranging from 10 to 100 µM (in serum-free medium). After 24 h of incubation, 10 µl of MTT (in PBS, 0.45 mg/ml final) were added to each well. After 4 h incubation, the supernatants were removed and the formazan crystals were dissolved by adding 100 μl of dimethyl sulfoxide (DMSO). For the positive control, cells were treated with 70% EtOH for 10 min. The absorption was measured at 570 nm and at a reference wavelength of 630 nm using Tecan infinite M200 plate reader.

[3] = cited from earlier work
Excerpt: Therefore, it was particularly interesting whether the combination of both, Tylotoin ...

HaCaT cells = test: Cellular uptake of CF-labeled peptides into HaCaT cells (flow cytometry and confocal microscopy); type: cell-based, human; conditions: 10 µM CF-labeled peptides, 30 min, 37 °C, confocal microscopy
Protocol: Cells were seeded in a µ-slide 8-well (Ibidi) plate (HaCaT 90,000; HeLa 45,000) and grown to 70–80% confluency. Then, the cells were incubated with CF-labeled peptides in serum-free medium for the requested time at either 4 °C or 37 °C as indicated. The nuclei were stained for 10 min with 0.6 µl Hoechst 33342 nuclear dye (bisbenzimide H33342, 1 mg/ml in H2O, sterile filtered) prior to the end of peptide incubation. Finally, the solutions were removed and cells were treated for 30 s with trypan blue (150 µM in 0.1 M acetate buffer, pH 4.15) for quenching external fluorescence. After washing twice with PBS, 300 µl of FBS-containing growth medium were added to each well. Images were taken by using a Nikon Eclipse Ti confocal laser scanning microscope equipped with a 60x oil-immersion objective (N.A. 1.4, Plan APO VC, Nikon). Images were recorded with Nikon EZ-C1 software and adjusted equally with ImageJ software.
For treatment with endocytosis inhibitor, 80 µM of dynasore (in serum-free medium, Sigma-Aldrich) was added to the cells. After 1 h of incubation at 37 °C, CF-labeled peptide solution (in serum-free medium, 10 µM final) was added and incubated for further 30 min. Afterwards, the cells were handled as described above.
Cells were seeded in triplicate in a 24-well plate (HaCaT 370,000; HeLa 170,000) and grown to 70–80% confluency under normal growth conditions. […]

Salmonella typhimurium = conditions: 6 h
Protocol: Antimicrobial activity of peptide conjugates against gram-positive and gram-negative bacteria was conducted using the p-iodonitrotetrazolium-chloride (INT) violet assay as previously described[33].
In brief, M. luteus and S. typhimurium were cultured in MH broth overnight at 37 °C while mild shaking (180 rpm). Overnight-cultured bacteria were added into fresh medium, grown to an optical density of 0.7 at 600 nm and 10 µl bacterial solution were added in triplicate to wells of a 96-well plate (BD Falcon, USA). The peptides used at various concentrations and 180 µl of MH medium were added to each corresponding well and incubated for 6 h at 37 °C. 10 µM chloramphenicol served as positive control and H20 was used as negative control. After incubation time, 10 μl of the freshly prepared INT solution (1 mg/ml in DMSO) were added to each well and incubated for further 30 min at 37 °C. The viability of bacteria relative to untreated bacteria was determined by measuring the absorption at 540 nm on a Tecan infinite M200 plate reader.

Micrococcus luteus = type: cell-based, Micrococcus luteus (DSM 20030); conditions: 6 h
Protocol: HaCaT (immortalized human keratinocytes) and HeLa (human cervix carcinoma) cells were cultured in sterile 10 cm petri dishes at 37 °C in a humidified atmosphere of 5% CO2. HaCaT cells were maintained in DMEM containing 4,500 mg/l glucose (DMEMg), 2 mM L-Gln and 10% FBS (fetal bovine serum). HeLa cells were grown in RPMI 1640 supplemented with 4 mM L-Gln and 10% FBS. Bacteria used were Micrococcus luteus (DSM 20030) and Salmonella typhimurium (TA 100). Mueller Hinton (MH) broth agar plates were used for maintenance und MH broth medium was used to carry out antimicrobial activity studies.
Antimicrobial activity of peptide conjugates against gram-positive and gram-negative bacteria was conducted using the p-iodonitrotetrazolium-chloride (INT) violet assay as previously described. INT is a tetrazolium-based reagent which is converted to a pink formazan dye in the presence of metabolically active bacteria.
In brief, M. luteus and S. typhimurium were cultured in MH broth overnight at 37 °C while mild shaking (180 rpm). Overnight-cultured bacteria were added into fresh medium, grown to an optical density of 0.7 at 600 nm and 10 µl bacterial solution were added in triplicate to wells of a 96-well plate (BD Falcon, USA). […] The viability of bacteria relative to untreated bacteria was determined by measuring the absorption at 540 nm on a Tecan infinite M200 plate reader.

[4] = cited from earlier work; remark: listed apart in the source
Excerpt: So far, very few studies have been conducted for the use of CPPs in the application field of human skin wound healing[12]–[14]. Thus, to our knowledge, we report for the first time on the fusion of a well-characterized cell penetrating peptide, namely sC18, to a wound healing promoting peptide sequence Tylotoin. This latter short peptide was recently identified and isolated from the skin of the salamander Tylototriton verrucosus. […] More precisely, Tylotoin ...

HeLa cells = test: Resazurin-based cell viability assay on HeLa cells; design: species or system human; conditions: 24 h, serum-free RPMI, triplicate, n = 3
Protocol: Figure 9 The efficacy of Tylotoin-sC18* towards cancer cells. Microscopic image of HeLa cells treated for 30 min with CF-labeled Tylotoin-sC18* (10 µM, green) at 37 °C (A). Quantification of the cellular uptake of 10 µM CF-labeled peptides for 30 min at 37 °C by flow cytometry (B). Cell viability of HeLa cells after treatment for 24 h with Tylotoin-sC18*, sC18* and Tylotoin, respectively (C). Cells treated with 70% ethanol served as positive control. Data are normalized to untreated cells (100% cell viability). Experiments were performed in triplicate with n = 3. Error bars represent standard deviation. (*p < 0.05).
For a resazurin-based cell viability assay, HeLa cells were seeded onto a 96-well plate, grown to 70–80% confluency and incubated with various concentrations of peptides in serum-free RPMI growth medium for 24 h under standard growth conditions. For the positive control, cells were treated with 70% EtOH for 10 min. After washing with serum-free medium, resazurin solution (10% in serum-free media, v/v) was incubated with the cells for 1 h at 37 °C. Subsequently, cell viability was determined relative to untreated cells by measurement of the resorufin product at 595 nm (λex = 550 nm) on a Tecan infinite M200 plate reader.

Compound | Percentage of the α-helix content: phosphate buffer [1] | Percentage of the α-helix content: 50% TFE [1] | R-value [1] | Cytotoxic effect on keratinocytes viability [2] | Antimicrobial activity [3] | Effect on HaCaT cells at higher concentrations [2] | further results
KCVRQNNKRVCKGLRKRLRKFRNKIKEK-NH2 [Tylotoin-sC18, chimeric peptide, CPP sC18 fused to the C-terminus of Tylotoin] | 12.1% | 46.3% | 0.85 | no cytotoxic effect at all | – | – | –
GLRKRLRKFRNKIKEK-NH2 [sC18, cell penetrating peptide recently developed in the authors' group; control peptide] | – | – | – | – | moderate antimicrobial activities | negatively affect the cells | Intracellular distribution in keratinocytes (HaCaT cells): some nuclear uptake was visible
CC(C)C[C@H](NC(=O)CNC(=O)[C@H](CCCCN)NC(=O)[C@H](CS)NC(=O)[C@@H](NC(=O)[C@H](CCCNC(=N)N)NC(=O)[C@H](CCCCN)NC(=O)[C@H](CC(N)=O)NC(=O)[C@H](CC(N)=O)NC(=O)[C@H](CCC(N)=O)NC(=O)[C@H](CCCNC(=N)N)NC(=O)[C@@H](NC(=O)[C@H](CS)NC(=O)[C@@H](N)CCCCN)C(C)C)C(C)C)C(=O)N[C@@H](CCCNC(=N)N)C(=O)N[C@@H](CCCCN)C(=O)N[C@@H](CCCNC(=N)N)C(=O)N[C@@H](CC(C)C)C(=O)N[C@@H](CCCNC(=N)N)C(=O)N[C@@H](CCCCN)C(=O)N[C@@H](Cc1ccccc1)C(=O)N[C@@H](CCCNC(=N)N)C(=O)N[C@@H](CC(N)=O)C(=O)N[C@@H](CCCCN)C(N)=O [Tylotoin-sC18*] (H-KCVRQNNKRVCKGLRKRLRKFRNK-NH2; N-terminus assumed) | – | – | – | – | – | – | MIC value (Salmonella typhimurium; murium): ~ 12.64 µM; MIC value (Micrococcus luteus): 13.47 µM (≈ 40.8 µg/mL)
GLRKRLRKFRNKIKEKKCVRQNNKRVCK-NH2 [sC18-Tylotoin, chimeric peptide, CPP sC18 fused N-terminally to Tylotoin] | 13.1% | 43.5% | 0.87 | – | – | negatively affect the cells | –
GLRKRLRKFRNKKCVRQNNKRVCK-NH2 [sC18*-Tylotoin, chimeric peptide, CPP sC18* fused N-terminally to Tylotoin] | 6.9% | 40.5% | 0.74 | slight decrease in cell viability | – | – | Difference in relative cell viability between sC18* and sC18*-Tylotoin [2]: about 40%
KCVRQNNKRVCK-NH2 [Tylotoin, wound healing promoting peptide from skin of the salamander Tylototriton verrucosus; made as C-terminal amide without disulfide bridge, reference compound] | 15.6% | 25.0% | 0.51 | no cytotoxic effect at all | did not show any antimicrobial activity | – | Wound healing in a murine model [4]: promote wound healing similar to hEGF; Cell viability of HeLa cells (HeLa cells): remained unharmed; Antimicrobial activity against S. typhimurium (Salmonella typhimurium; INT assay, 37 °C): no antimicrobial activities; Proliferation of HaCaT cells [2]: enhance the proliferation; Antimicrobial activity against M. luteus (Micrococcus luteus; INT assay, 37 °C): no antimicrobial activity
